Test results from patent US20100184810A1, “METHODS AND COMPOSITIONS RELATED TO RIBOSWITCHES THAT CONTROL ALTERNATIVE SPLICING” (Yale University, priority 2007, published 2010).
Read-outs that look alike come from different tables or passages of the source.

Tests used:
[1] = target: NMT1 riboswitch aptamer; experiment: In-line probing of NMT1 RNA constructs (TPP binding); parameters: species or system N. crassa
Experimental: In-line probing of RNA constructs. 5′ 32P-labeled RNAs were incubated at 23° C. for 40 hours in 50 mM Tris-HCl (pH 8.3 at 25° C.), 20 mM MgCl2 and 100 mM KCl in the presence or absence of TPP as defined. Cleavage products were separated by denaturing 10% PAGE, visualized by PhosphorImager (GE Healthcare), and quantified using ImageQuant software. KD values were determined by plotting the normalized fraction of RNA cleaved versus the logarithm of ligand concentration used. […] The results for in-line probing of 197 NMT1 and 115 NMT1 are depicted in FIG. 8 and FIG. 9, the results for 261 NMT1 are depicted in FIG. 10 and the results for 273 NMT1 are depicted in FIG. 11. Alternative base pairing similar to that being examined in the 273 NMT1 construct is observed in other fungal TPP riboswitches located in NMT1 mRNAs (FIG. 12).

[2] = test system: THI4 precursor mRNA; settings: 30 μM thiamine in growth medium, 24 h
Experimental: (§1) RNA Analyses. RT-PCR analyses were conducted using RNA from untransformed N. crassa inoculated into 100 ml of Vogel's minimal medium supplemented with 0.5 mg ml-1 L-histidine. Cultures were grown at 30° C. with shaking at 150 rpm for 24 h either in the absence or presence of supplemented 30 μM thiamine. The cDNA was used as a template for PCR amplification of the 5′ regions of the three genes using primers and methods as described in Supplementary Information. All splicing products were confirmed by cloning and sequencing.
(§2) Reverse transcriptase-polymerase chain reaction (RT-PCR) analyses. Total RNA was isolated from mycelia using TRIzol® LS reagent (Invitrogen) according to the manufacturer's directions. 5 μg of total RNA was treated with RNase free DNase I (Promega) for 30 min at 37° C. cDNA was generated by reverse transcription with a polyT primer for 1 hr at 42° C. using SuperScript™ II Reverse Transcriptase (Invitrogen) according to the manufacturer's directions. To exclude the possibility of amplification products originating from contamination with genomic DNA, control reactions using RNA preparations before RT were performed and, for NMT1, a reverse primer spanning an exon-exon border in the coding region was used.
as §2, with “used. […] For sequence identification all amplification products were cloned and confirmed by sequencing several independent clones.” for “used.”
(§3) A specific primer combination was used for every gene with one primer binding to the annotated 5′ end of the transcript and a second primer binding immediately downstream of the riboswitch-containing intron. For the NMT1 gene, the primers used for PCR were DNA37 and DNA38 (FIG. 14), corresponding to the annotated 5′ end of the NMT1 mRNA and a region approximately 50 nucleotides downstream of the TPP riboswitch-containing intron, respectively. For the THI4 (CyPBP37) gene, the primers used were DNA39 and DNA40, corresponding to the 5′ end of the mRNA and a region approximately 125 nucleotides downstream of the TPP riboswitch-containing intron, respectively.

[3] = test system: NMT1 precursor mRNA
Experimental: as §1, §2
as §2, with “used. […] For sequence identification all amplification products were cloned and confirmed by sequencing several independent clones.” for “used.”
as §3

[4] = test system: thiA mRNA carrying a TPP aptamer; settings: thiamine supplementation of growth medium; cited from earlier work
[5] = test system: NMT1 TPP riboswitch
Experimental: Reporter Gene Assays. Transformation of N. crassa was conducted using electroporation of freshly suspended macroconidia and insertion of the target gene was verified by PCR with insert specific primers from genomic DNA. Transcription of luciferase reporter constructs was constitutively driven by the N. crassa beta-tubulin (BTUB) promoter inserted upstream of the NMT1 5′ UTR. […] Samples were isolated and assayed for luciferase activity as described below.
(§4) Luciferase reporter gene assays. Mycelia from N. crassa transformed with LUC reporter constructs were isolated by filtration and approximately 100 mg of tissue was ground to a fine powder. […] Luciferase activity was determined for the resulting supernatant using the Luciferase Assay System (Promega) and a plate-reading luminometer (Wallac). Luciferase activity was normalized over total protein concentration of the extract as determined by Bradford Protein Assay (BioRad) and finally expressed relative to a reference construct.
Luciferase reporter gene assays. […] Luciferase activity was determined for the resulting supernatant using the Luciferase Assay System (Promega) and a plate-reading luminometer (Wallac). Luciferase activity was normalized over total protein concentration of the extract as determined by Bradford Protein Assay (BioRad) and finally expressed relative to a reference construct.

[6] = test system: FREQUENCY (FRQ) transcripts; settings: 30 μM thiamine in minimal medium
Experimental: as §2
Reverse transcriptase-polymerase chain reaction (RT-PCR) analyses. Total RNA was isolated from mycelia using TRIzol® LS reagent (Invitrogen) according to the manufacturer's directions. 5 μg of total RNA was treated with RNase free DNase I (Promega) for 30 min at 37° C. cDNA was generated by reverse transcription with a polyT primer for 1 hr at 42° C. using SuperScript™ II Reverse Transcriptase (Invitrogen) according to the manufacturer's directions. […]

[7] = test system: TPP riboswitch in the N. crassa NCU01977.1 mRNA; settings: 30 μM thiamine, 24 h
Experimental: LUC activity was normalized to the value measured at t=0 h.
Luciferase reporter gene assays. Mycelia from N. crassa transformed with LUC reporter constructs were isolated by filtration and approximately 100 mg of tissue was ground to a fine powder. After addition of 100 gl 1× Passive Lysis Buffer (Promega), the samples were vigorously mixed and incubated on ice for 30 min followed by centrifugation for 15 minutes at 13,000 g. Luciferase activity was determined for the resulting supernatant using the Luciferase Assay System (Promega) and a plate-reading luminometer (Wallac). Luciferase activity was normalized over total protein concentration of the extract as determined by Bradford Protein Assay (BioRad) and finally expressed relative to a reference construct.
as §4

[8] = 30 μM thiamine added at t=0 to culture grown in thiamine-free medium

Kd ([1]; both constructs (197 NMT1 and 115 NMT1), in-line probing, 23° C., 40 hours, 20 mM MgCl2, read-out: apparent dissociation constant (KD)) [nM] | structural modulation of nucleotides at the branch site ([1]; in-line probing of 261 NMT1 RNA, 10 μM TPP) | structural modulation at the second 5′ splice site ([1]; in-line probing of 273 NMT1 RNA, 10 μM TPP) | Structure (SMILES) | effect on splicing of THI4 precursor mRNA [2] | NMT1 transcript types within four hours after thiamine supplementation [3, 8] | NMT1 transcript types within the first hour after thiamine supplementation [3, 8] | effect on splicing of NMT1 precursor mRNA ([3]; 30 μM thiamine in growth medium, 24 h) | thiA gene expression [4] | LUC expression, constructs I-2R and I-3R (TPP riboswitch absent) ([5]; 30 μM thiamine in the medium) | LUC reporter expression, wild-type (WT) NMT1 construct ([5]; grown overnight in medium supplemented with 30 μM thiamine) | effect on splicing of an RNA that does not carry the TPP riboswitch (FRQ) [6] | effect on splicing of an RNA that does not carry the TPP riboswitch (FRQ) ([6]; listed as Thiamine) | LUC expression, NCU01977.1 reporter fusion construct [7]
~0.3 | more structured | more flexible structure | Cc1ncc(C[n+]2csc(CCO[P@](=O)(O)OP(=O)(O)O)c2C)c(N)n1 [TPP, thiamine pyrophosphate] |  |  |  |  |  |  |  |  |  | 
 |  |  | Cc1ncc(C[n+]2csc(CCO)c2C)c(N)n1 [thiamine] | causes alternative splicing | I-3 is almost completely replaced by I-2 and I-1 | the splicing product I-2 and the unspliced NMT1 precursor RNA I-1 appear | causes alternative splicing | reduced gene expression | unchanged | Substantial repression | do not change in number relative to each other | does not affect splicing | an increase in LUC expression
